The source of these data is PMC11489721 (Communications Chemistry, 2024).

Assay [1] concerns the target T1, heterodimeric receptor (T1R2/T1R3) (Homo sapiens, UniProt Q7RTX0+Q8TE23).
T1 sequence (Q8TE23 20-839): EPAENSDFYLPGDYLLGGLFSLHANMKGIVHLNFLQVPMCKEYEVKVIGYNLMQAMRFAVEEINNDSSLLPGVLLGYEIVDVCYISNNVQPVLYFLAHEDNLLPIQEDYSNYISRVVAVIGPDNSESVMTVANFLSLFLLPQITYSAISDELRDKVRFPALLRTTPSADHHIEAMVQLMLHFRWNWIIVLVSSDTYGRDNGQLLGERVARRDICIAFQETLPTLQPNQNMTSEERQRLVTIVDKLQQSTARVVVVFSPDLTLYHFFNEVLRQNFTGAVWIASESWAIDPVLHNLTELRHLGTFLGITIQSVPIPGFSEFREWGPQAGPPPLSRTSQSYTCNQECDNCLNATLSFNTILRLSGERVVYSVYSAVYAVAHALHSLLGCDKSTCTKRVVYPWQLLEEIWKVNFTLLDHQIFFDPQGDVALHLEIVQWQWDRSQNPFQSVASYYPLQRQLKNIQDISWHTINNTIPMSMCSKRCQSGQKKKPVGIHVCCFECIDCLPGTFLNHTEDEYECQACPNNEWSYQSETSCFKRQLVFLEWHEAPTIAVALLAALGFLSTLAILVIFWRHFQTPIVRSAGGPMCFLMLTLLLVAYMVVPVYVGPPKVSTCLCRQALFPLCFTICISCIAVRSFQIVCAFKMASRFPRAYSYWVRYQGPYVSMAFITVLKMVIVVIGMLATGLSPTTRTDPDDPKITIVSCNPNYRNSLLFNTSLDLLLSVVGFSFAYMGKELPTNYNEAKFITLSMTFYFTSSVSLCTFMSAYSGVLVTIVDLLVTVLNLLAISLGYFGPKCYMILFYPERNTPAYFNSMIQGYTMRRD
T1 sequence (Q7RTX0 21-852): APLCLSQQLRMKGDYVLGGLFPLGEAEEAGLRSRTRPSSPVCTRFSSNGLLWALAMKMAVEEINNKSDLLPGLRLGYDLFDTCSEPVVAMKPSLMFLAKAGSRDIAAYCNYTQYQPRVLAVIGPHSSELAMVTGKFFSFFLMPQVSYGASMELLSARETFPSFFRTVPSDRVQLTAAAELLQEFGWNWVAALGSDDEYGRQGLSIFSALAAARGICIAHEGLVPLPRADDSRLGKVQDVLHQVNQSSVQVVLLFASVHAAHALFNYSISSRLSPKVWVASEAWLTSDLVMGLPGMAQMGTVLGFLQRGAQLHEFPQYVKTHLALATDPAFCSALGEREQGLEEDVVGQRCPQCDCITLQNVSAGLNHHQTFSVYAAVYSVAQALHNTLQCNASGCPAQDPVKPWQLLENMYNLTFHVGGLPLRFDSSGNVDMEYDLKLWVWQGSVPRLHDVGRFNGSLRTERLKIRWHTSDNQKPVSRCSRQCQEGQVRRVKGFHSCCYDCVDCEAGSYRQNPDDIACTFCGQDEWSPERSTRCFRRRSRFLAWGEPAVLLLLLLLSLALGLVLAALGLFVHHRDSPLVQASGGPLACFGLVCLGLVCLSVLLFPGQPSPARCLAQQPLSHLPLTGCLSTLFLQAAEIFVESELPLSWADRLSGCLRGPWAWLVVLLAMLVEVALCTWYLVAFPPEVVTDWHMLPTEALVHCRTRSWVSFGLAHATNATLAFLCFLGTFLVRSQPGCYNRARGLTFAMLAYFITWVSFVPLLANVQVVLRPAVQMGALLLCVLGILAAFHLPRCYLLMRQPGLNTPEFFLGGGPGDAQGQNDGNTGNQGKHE
Briefly: Competition binding with [14C]-sucrose as radioligand.

In assay [2] the target is human T1R2/T1R3 sweet taste receptor. To be noted: HEK293 stably expressing T1R2/T1R3, FLIPR calcium mobilization; cited from earlier work.
Assay [3] addresses T2, heterodimeric receptor (T1R2/T1R3), TMD3 binding site (Homo sapiens, UniProt Q7RTX0+Q8TE23).
T2 sequence (Q8TE23 20-839): T1 sequence (Q8TE23 20-839)
T2 sequence (Q7RTX0 21-852): T1 sequence (Q7RTX0 21-852)
The experiment in a line: Competition binding with [3H]-lactisole as radioligand. To be noted: for Competitive inhibition with lactisole: radioligand [3H]-lactisole.

For assay [4], the target named is T3, heterodimeric receptor (T1R2/T1R3), TMD2 binding site (Homo sapiens, UniProt Q7RTX0+Q8TE23).
T3 sequence (Q8TE23 20-839): T1 sequence (Q8TE23 20-839)
T3 sequence (Q7RTX0 21-852): T1 sequence (Q7RTX0 21-852)
Briefly: Competition binding with [3H]-Perillartine as radioligand. To be noted: radioligand [3H]-Perillartine.

Assay [5] concerns the target T4, heterodimeric receptor (T1R2/T1R3), presumed VFD2 binding site (Homo sapiens, UniProt Q7RTX0+Q8TE23).
T4 sequence (Q8TE23 20-839): T1 sequence (Q8TE23 20-839)
T4 sequence (Q7RTX0 21-852): T1 sequence (Q7RTX0 21-852)
The experiment in a line: Competition binding with [3H]-Rebaudioside B as radioligand. To be noted: for Competitive inhibition with RebB: radioligand [3H]-Rebaudioside B.

The target of assay [6] is human T1R2. To be noted: human T1R2, intrinsic fluorescence; cited from earlier work.
Assay [7] relates to human T1R2/T1R3 heterodimers. The settings on record: transiently transfected, fluorescent calcium biosensor; cited from earlier work.
Assay [8] has as its target extracellular amino-terminal domain (ATD) of human T1R2. The settings on record: circular dichroism; cited from earlier work. (In general: Circular dichroism is widely used to follow secondary structure.)

SMILES strings stand for the structures. pEC50, pKd, pKi: −log10 of the molar value.

Turning to `COc1ccc(CCC(=O)c2c(O)cc(O[C@@H]3O[C@H](CO)[C@@H](O)[C@H](O)[C@H]3O[C@@H]3O[C@@H](C)[C@H](O)[C@@H](O)[C@H]3O)cc2O)cc1O` [NHDC, Neohesperidin Dihydrochalcone], the pKi in assay [1] was 1.87; in assay [3] (Ki, radiolabeled ligand lactisole), 3.48; in assay [5] it was 1.20. Also, the pEC50 in assay [2] is 4.99. For the same molecule, the Ki in assay [3] (Ki (mM), radiolabeled ligand lactisole, TMD3 binding, Table 4) stood at 0.33 mM. For the same molecule, in assay [3], the “Competitive inhibition with lactisole” value is reported as “inhibition”. Besides, the “Competitive inhibition with perillartine” value in assay [4] is reported as “high levels of inhibition”. For the same molecule, the “Competitive inhibition with RebB” value in assay [5] is given as “positive inhibition”.

In the case of `CC1=CC(=O)NS(=O)(=O)O1` [AceK, Acesulfame K], the negative logarithm of the Kd (pKd) in assay [6] is 3.79; in assay [8] it was 4.00. In addition, the pEC50 in assay [2] was 3.90; in assay [7], 3.67. Besides, the “Competitive inhibition with lactisole” value in assay [3] is “do not compete”. Further, the “Competitive inhibition with perillartine” value in assay [4] is recorded as “high levels of inhibition”. The “Competitive inhibition with RebB” value in assay [5] was “inhibited”.

The term pKi denotes the negative decadic logarithm of the Ki, by convention in mol/L. Higher therefore signals a low Ki. In general, pEC50 refers to the negative decadic logarithm of the EC50, by convention in mol/L. As usually defined, the Ki is the equilibrium dissociation constant of an inhibitor or competing ligand from its target. A lower Ki goes with a stronger hold on the target. The pKd is the Kd on a negative log10 scale, so that one unit is a factor of ten.
